In patent US12668591B2, “1,2,4-oxadiazole derivatives as histone deacetylase 6 inhibitors” (Oryzon Genomics, S.A., priority 2017, dated 2026):

Experiments:
HDAC6 [1] = target: T1, HDAC6 (Homo sapiens, UniProt Q9UBN7); test: In vitro cell-based assay: acetylation levels of Alpha-Tubulin by Western Blot in MOLP8 cells; set-up: endogenous in cells; host or cells: MOLP8; conditions: 18 h, acetyl-alpha-tubulin relative band intensity, ACY-1215 1 μM = 100%
T1 sequence (Q9UBN7 1-1215): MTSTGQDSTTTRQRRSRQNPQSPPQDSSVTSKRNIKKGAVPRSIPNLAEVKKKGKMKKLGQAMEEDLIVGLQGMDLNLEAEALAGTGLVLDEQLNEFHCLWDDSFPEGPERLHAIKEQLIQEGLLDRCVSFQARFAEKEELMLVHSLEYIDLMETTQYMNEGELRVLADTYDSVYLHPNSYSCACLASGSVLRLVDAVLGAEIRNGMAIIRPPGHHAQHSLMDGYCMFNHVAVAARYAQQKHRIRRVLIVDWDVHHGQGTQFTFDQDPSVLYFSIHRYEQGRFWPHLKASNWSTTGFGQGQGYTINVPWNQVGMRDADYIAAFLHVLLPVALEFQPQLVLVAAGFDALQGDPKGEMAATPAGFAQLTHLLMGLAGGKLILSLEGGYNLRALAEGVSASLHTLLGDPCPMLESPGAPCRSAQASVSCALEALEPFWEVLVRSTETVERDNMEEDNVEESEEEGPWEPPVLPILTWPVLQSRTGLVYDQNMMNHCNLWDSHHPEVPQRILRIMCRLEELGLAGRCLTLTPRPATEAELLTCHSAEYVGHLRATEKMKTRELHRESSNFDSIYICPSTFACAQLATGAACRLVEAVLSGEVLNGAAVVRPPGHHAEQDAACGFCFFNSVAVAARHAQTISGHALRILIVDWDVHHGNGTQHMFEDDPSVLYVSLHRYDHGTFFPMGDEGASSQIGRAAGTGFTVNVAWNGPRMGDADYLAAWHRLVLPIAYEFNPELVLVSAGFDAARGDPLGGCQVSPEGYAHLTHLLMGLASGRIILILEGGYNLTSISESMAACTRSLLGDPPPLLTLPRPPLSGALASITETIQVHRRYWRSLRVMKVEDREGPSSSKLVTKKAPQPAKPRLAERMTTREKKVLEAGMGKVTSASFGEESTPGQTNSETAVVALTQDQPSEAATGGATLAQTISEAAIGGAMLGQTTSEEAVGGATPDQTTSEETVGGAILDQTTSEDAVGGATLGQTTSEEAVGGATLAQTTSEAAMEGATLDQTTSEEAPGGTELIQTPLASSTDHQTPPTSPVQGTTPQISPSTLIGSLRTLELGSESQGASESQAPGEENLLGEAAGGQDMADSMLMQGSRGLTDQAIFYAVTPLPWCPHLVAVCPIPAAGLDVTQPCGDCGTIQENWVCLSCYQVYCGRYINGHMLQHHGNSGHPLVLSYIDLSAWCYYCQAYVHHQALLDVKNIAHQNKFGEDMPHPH
How it was run: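 MOLP8 cells treated with compounds at 5 and 1 μM for 18 h at 37° C.; acetyl-alpha-tubulin measured by Western blot of RIPA extracts (7 μg protein). Bands normalized to total protein or beta-actin, expressed relative to ACY-1215 1 μM (100%), then classed.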

HDAC2 = target: T2, HDAC2 (Homo sapiens, UniProt Q92769); test: HDAC2 enzyme inhibition assay (fluorimetric); assay type: biochemical; conditions: 1 μM compound; 3 h pre-incubation; recombinant full length HDAC2; read-out: HDAC2 % inh @ 1 μM
T2 construct: (full length with C-terminal His-tag); His (C); purchased BPS Bioscience Inc. 50002
T2 sequence (Q92769 whole entry): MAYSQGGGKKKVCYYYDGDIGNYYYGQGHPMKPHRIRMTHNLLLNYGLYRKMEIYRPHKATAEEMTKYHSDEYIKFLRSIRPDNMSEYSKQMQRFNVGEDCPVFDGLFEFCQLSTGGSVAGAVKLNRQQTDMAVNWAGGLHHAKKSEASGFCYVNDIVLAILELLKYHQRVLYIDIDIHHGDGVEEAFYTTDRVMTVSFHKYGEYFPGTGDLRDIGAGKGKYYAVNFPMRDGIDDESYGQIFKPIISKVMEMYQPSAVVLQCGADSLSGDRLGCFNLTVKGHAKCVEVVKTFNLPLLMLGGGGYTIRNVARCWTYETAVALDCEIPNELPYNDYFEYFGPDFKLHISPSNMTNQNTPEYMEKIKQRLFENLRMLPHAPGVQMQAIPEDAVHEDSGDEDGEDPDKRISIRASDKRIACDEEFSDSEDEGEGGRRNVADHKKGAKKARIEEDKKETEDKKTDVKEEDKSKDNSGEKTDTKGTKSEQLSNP
Description: (§1) HDAC6 and HDAC2 Enzyme Inhibition Assay
(§2) A fluorimetric assay was used for testing the activity of compounds of the invention against HDAC6 and HDAC2.
(§3) The compounds were dissolved in DMSO. Serial dilutions were prepared in DMSO and then diluted 1:10 in HDAC assay buffer (Tris-buffered solution, BPS Bioscience Inc. #50031). 5 μl of the compound dilution was added to a 50 μl reaction so that the final concentration of DMSO was 1%.
(§4) The compounds were pre-incubated in duplicate at RT for 3 hours in a mixture containing HDAC assay buffer, 5 μg BSA and recombinant HDAC enzyme (see table above). The enzymatic reactions were initiated by the addition of a fluorogenic, acetylated peptide substrate based on a histone protein (BPS Bioscience Inc. #50037) to a final concentration of 10 μM. The enzymatic reaction proceeded for 30 minutes at 37° C. Then, 50 μl of 2× HDAC Developer, which contains peptidase activity and Trichostatin A (BPS Bioscience Inc. #50030) was added and the plate was incubated at RT for an additional 15 minutes. Fluorescence intensity was measured at an excitation of 360 nm and an emission of 460 nm using a Tecan Infinite M1000 microplate reader.
(§5) Trichostatin A (TSA, Selleckchem #S1045) was used as reference inhibitor.
(§6) The fluorescent intensity data were analyzed using the computer software Graphpad Prism (GraphPad Software, San Diego, CA). 100% activity was defined as the fluorescent intensity (Ft) in the absence of the compound. 0% activity was defined as the fluorescent intensity (Fb) in the absence of the enzyme. The percent activity in the presence of each compound was calculated according to the following equation: % activity=(F−Fb)/(Ft−Fb), where F=the fluorescent intensity in the presence of the compound.

HDAC6 [2] = target: T1, HDAC6; test: HDAC6 enzyme inhibition assay (fluorimetric); assay type: biochemical; conditions: 1 μM compound; 3 h pre-incubation; recombinant full length HDAC6; read-out: HDAC6 % inh @ 1 μM
Description: as §1, §2, §3, §4, §5, §6

| SMILES | Cellular activity @1 uM (HDAC6 [1]) | Cellular activity @5 uM (HDAC6 [1]) | inhibition at 1 µM (HDAC2) [%] | inhibition at 1 µM (HDAC6 [2]) [%] |
| --- | --- | --- | --- | --- |
| FC1(F)CCN(CCNc2ccnc(-c3cc(-c4noc(C(F)(F)F)n4)ccn3)c2)CC1 [Example 1z, N-(2-(4,4-Difluoropiperidin-1-yl)ethyl)-4′-(5-(trifluoromethyl)-1,2,4-oxadiazol-3-yl)-[2,2′-bipyridin]-4-amine] | + (50-150) | ++ (150-300) | 46 | 97 |
| CN(CC1CC1)c1ccc(-c2cc(-c3noc(C(F)(F)F)n3)ccn2)nc1 [Example 1j, N-(Cyclopropylmethyl)-N-methyl-4′-(5-(trifluoromethyl)-1,2,4-oxadiazol-3-yl)-[2,2′-bipyridin]-5-amine] | − (<50) | ++ (150-300) | 10 | 69 |
| CCCCn1cc(CN(C)C)c2cc(-c3cc(-c4noc(C(F)(F)F)n4)ccn3)ncc21 [Example 3, 1-(1-Butyl-5-(4-(5-(trifluoromethyl)-1,2,4-oxadiazol-3-yl)pyridin-2-yl)-1-pyrrolo[2,3-c]pyridin-3-yl)-N,N-dimethylmethanamine] | + (50-150) | +++ (>300) | 30 | 90 |
| CCN(CC)CCCOc1ccc(-c2cc(-c3noc(C(F)(F)F)n3)ccn2)nc1 [Example 1c, N,N-Diethyl-3-((4′-(5-(trifluoromethyl)-1,2,4-oxadiazol-3-yl)-[2,2′-bipyridin]-5-yl)oxy)propan-1-amine] | + (50-150) | ++ (150-300) | 3 | 89 |
| FC1(F)CCN(CCn2ccc3cnc(-c4cc(-c5noc(C(F)(F)F)n5)ccn4)cc32)CC1 [Example 1ab, 3-(2-(1-(2-(4,4-Difluoropiperidin-1-yl)ethyl)-1H-pyrrolo[3,2-c]pyridin-6-yl)pyridin-4-yl)-5-(trifluoromethyl)-1,2,4-oxadiazole] | ++ (150-300) | ++ (150-300) | 38 | 93 |
| FC(F)(F)c1nc(-c2ccnc(-c3cc4c(ccn4Cc4ccncc4)cn3)c2)no1 [Example 1al, 3-(2-(1-(Pyridin-4-ylmethyl)-1H-pyrrolo[3,2-c]pyridin-6-yl)pyridin-4-yl)-5-(trifluoromethyl)-1,2,4-oxadiazole] | ++ (150-300) | ++ (150-300) | 31 | 92 |
| CN1CCC(C(=O)Nc2ccc(-c3cc(-c4noc(C(F)(F)F)n4)ccn3)nc2)CC1 [Example 1ac, 1-Methyl-N-(4′-(5-(trifluoromethyl)-1,2,4-oxadiazol-3-yl)-[2,2′-bipyridin]-5-yl)piperidine-4-carboxamide] | + (50-150) | ++ (150-300) | 18 | 78 |
| O=C(CC1CCC1)Nc1ccnc(-c2cc(-c3noc(C(F)(F)F)n3)ccn2)c1 [Example 1ae, 2-Cyclobutyl-N-(4′-(5-(trifluoromethyl)-1,2,4-oxadiazol-3-yl)-[2,2′-bipyridin]-4-yl)acetamide] | + (50-150) | + (50-150) | 5 | 85 |
| CCCCn1c(C(=O)N(CC)CC)cc2cc(-c3cc(-c4noc(C(F)(F)F)n4)ccn3)ncc21 [Example 1w, 1-Butyl-N,N-diethyl-5-(4-(5-(trifluoromethyl)-1,2,4-oxadiazol-3-yl)pyridin-2-yl)-1H-pyrrolo[2,3-c]pyridine-2-carboxamide] | + (50-150) | ++ (150-300) | 6 | 86 |
| FC(F)(F)c1nc(-c2ccnc(-c3ccc(OCCCN4CCOCC4)cn3)c2)no1 [Example 1e, 4-(3-((4′-(5-(Trifluoromethyl)-1,2,4-oxadiazol-3-yl)-[2,2′-bipyridin]-5-yl)oxy)propyl)morpholine] | + (50-150) | ++ (150-300) | 9 | 84 |

Now from value to molecule:

| Cellular activity @1 uM (HDAC6 [1]) | Cellular activity @5 uM (HDAC6 [1]) | inhibition at 1 µM (HDAC2) [%] | inhibition at 1 µM (HDAC6 [2]) [%] | SMILES |
| --- | --- | --- | --- | --- |
| − (<50) | ++ (150-300) | 16 | 71 | FC1(F)CCN(CCCOc2ccc(-c3cc(-c4noc(C(F)(F)F)n4)ccn3)nc2)CC1 [Example 1f, 3-(5′-(3-(4,4-Difluoropiperidin-1-yl)propoxy)-[2,2′-bipyridin]-4-yl)-5-(trifluoromethyl)-1,2,4-oxadiazole] |
| + (50-150) | + (50-150) | 27 | 95 | CCN(CC)CCCNc1ccc(-c2cc(-c3noc(C(F)(F)F)n3)ccn2)nc1 [Example 1k, N^1,N^1-Diethyl-N^3-(4′-(5-(trifluoromethyl)-1,2,4-oxadiazol-3-yl)-[2,2′-bipyridin]-5-yl)propane-1,3-diamine] |
| ++ (150-300) | +++ (>300) | 16 | 95 | COCCn1ccc2cc(-c3cc(-c4noc(C(F)(F)F)n4)ccn3)ncc21 [Example 1x, 3-(2-(1-(2-Methoxyethyl)-1H-pyrrolo[2,3-c]pyridin-5-yl)pyridin-4-yl)-5-(trifluoromethyl)-1,2,4-oxadiazole] |
| + (50-150) | ++ (150-300) | 14 | 90 | FC(F)(F)c1nc(-c2ccnc(-c3cc4[nH]ccc4cn3)c2)no1 [Example 1ak, 3-(2-(1H-Pyrrolo[3,2-c]pyridin-6-yl)pyridin-4-yl)-5-(trifluoromethyl)-1,2,4-oxadiazole] |
| ++ (150-300) | +++ (>300) | 25 | 96 | FC(F)(F)c1nc(-c2ccnc(-c3n[nH]c4cccnc34)c2)no1 [Example 4, 3-(2-(1H-Pyrazolo[4,3-b]pyridin-3-yl)pyridin-4-yl)-5-(trifluoromethyl)-1,2,4-oxadiazole] |
| + (50-150) | ++ (150-300) | 27 | 92 | O=C(CN1CCC(F)(F)CC1)Nc1ccnc(-c2cc(-c3noc(C(F)(F)F)n3)ccn2)c1 [Example 1y, 2-(4,4-Difluoropiperidin-1-yl)-N-(4′-(5-(trifluoromethyl)-1,2,4-oxadiazol-3-yl)-[2,2′-bipyridin]-4-yl)acetamide] |
